pEC50: −log10 of the molar value.
tested on: not listed separately; experiment: Cytotoxicity against human MT4 cells assessed as cell viability after 96 hrs by MTT assay; assay type: cell-based; conditions: not given

Row | SMILES | CC50 at 96 h [µM]
1 | COc1ccc(Cn2nnc3cc(Cl)c(Cl)cc32)cc1 | > 100
2 | Cc1ccc(C)c(OCCCC(C)(C)C(=O)O)c1 [GEMFIBROZIL] | > 100
3 | Clc1cc2nn(C3CCCCO3)nc2cc1Cl (stereo unspecified) | > 100
4 | Cc1ccc2nn(-c3ccc(OCC(C)(C)C(=O)O)cc3)nc2c1 | ≥ 100
5 | Clc1c(Cl)c(Cl)c2nn(C3CCCO3)nc2c1Cl (stereo unspecified) | > 100

tested on: not listed separately; experiment: Cytotoxicity against MDBK cells assessed as cell viability after 48 to 96 hrs by MTT assay; assay type: cell-based, Bos taurus; conditions: cattle

Row | SMILES | CC50 [µM]
6 | COc1ccc(Cn2nnc3cc(Cl)c(Cl)cc32)cc1 | > 100
7 | Cc1ccc(C)c(OCCCC(C)(C)C(=O)O)c1 [GEMFIBROZIL] | > 100
8 | Clc1cc2nn(C3CCCCO3)nc2cc1Cl (stereo unspecified) | > 100
9 | Cc1ccc2nn(-c3ccc(OCC(C)(C)C(=O)O)cc3)nc2c1 | 69
10 | Clc1c(Cl)c(Cl)c2nn(C3CCCO3)nc2c1Cl (stereo unspecified) | ≥ 100

tested on: not listed separately; experiment: Cytotoxicity against BHK cells assessed as cell viability after 48 to 96 hrs by MTT assay; assay type: cell-based, Mesocricetus auratus; conditions: hamster

Row | SMILES | CC50 [µM]
11 | COc1ccc(Cn2nnc3cc(Cl)c(Cl)cc32)cc1 | > 100
12 | Cc1ccc(C)c(OCCCC(C)(C)C(=O)O)c1 [GEMFIBROZIL] | > 100
13 | Clc1cc2nn(C3CCCCO3)nc2cc1Cl (stereo unspecified) | > 100
14 | Cc1ccc2nn(-c3ccc(OCC(C)(C)C(=O)O)cc3)nc2c1 | ≥ 100
15 | Clc1c(Cl)c(Cl)c2nn(C3CCCO3)nc2c1Cl (stereo unspecified) | 30

tested on: not listed separately; experiment: Cytotoxicity against african green monkey Vero 76 cells assessed as cell viability after 48 to 96 hrs by crystal violet staining method; assay type: cell-based; conditions: chlorocebus sabaeus

Row | SMILES | CC50 [µM]
16 | COc1ccc(Cn2nnc3cc(Cl)c(Cl)cc32)cc1 | > 100
17 | Cc1ccc(C)c(OCCCC(C)(C)C(=O)O)c1 [GEMFIBROZIL] | > 100
18 | Clc1cc2nn(C3CCCCO3)nc2cc1Cl (stereo unspecified) | ≥ 100
19 | Cc1ccc2nn(-c3ccc(OCC(C)(C)C(=O)O)cc3)nc2c1 | 60
20 | Clc1c(Cl)c(Cl)c2nn(C3CCCO3)nc2c1Cl (stereo unspecified) | 12

tested on: Bovine viral diarrhea virus 1; experiment: Antiviral activity against BVDV infected in MDBK cells assessed as inhibition of virus-induced cytopathogenicity after 3 to 4 days by MTT assay; assay type: functional, organism-based; conditions: Bovine viral diarrhea virus isolates and strains

Row | SMILES | pEC50
21 | COc1ccc(Cn2nnc3cc(Cl)c(Cl)cc32)cc1 | < 4.00
22 | Cc1ccc(C)c(OCCCC(C)(C)C(=O)O)c1 [GEMFIBROZIL] | 4.05
23 | Clc1cc2nn(C3CCCCO3)nc2cc1Cl (stereo unspecified) | < 4.00
24 | Cc1ccc2nn(-c3ccc(OCC(C)(C)C(=O)O)cc3)nc2c1 | < 4.00
25 | Clc1c(Cl)c(Cl)c2nn(C3CCCO3)nc2c1Cl (stereo unspecified) | 4.92

tested on: Yellow fever virus; experiment: Antiviral activity against YFV infected in BHK-21 cells assessed as inhibition of virus-induced cytopathogenicity after 3 to 4 days by MTT assay; assay type: functional, organism-based; conditions: not given

Row | SMILES | pEC50
26 | COc1ccc(Cn2nnc3cc(Cl)c(Cl)cc32)cc1 | < 4.00
27 | Cc1ccc(C)c(OCCCC(C)(C)C(=O)O)c1 [GEMFIBROZIL] | < 4.00
28 | Clc1cc2nn(C3CCCCO3)nc2cc1Cl (stereo unspecified) | < 4.00
29 | Cc1ccc2nn(-c3ccc(OCC(C)(C)C(=O)O)cc3)nc2c1 | < 4.00
30 | Clc1c(Cl)c(Cl)c2nn(C3CCCO3)nc2c1Cl (stereo unspecified) | < 4.00

tested on: Mammalian orthoreovirus 1; experiment: Antiviral activity against Reo-1 virus infected in BHK-21 cells assessed as inhibition of virus-induced cytopathogenicity after 3 to 4 days by MTT assay; assay type: functional, cell-based; conditions: Mammalian orthoreovirus 1, BHK-21

Row | SMILES | pEC50
31 | COc1ccc(Cn2nnc3cc(Cl)c(Cl)cc32)cc1 | < 4.00
32 | Clc1cc2nn(C3CCCCO3)nc2cc1Cl (stereo unspecified) | < 4.00
33 | Clc1c(Cl)c(Cl)c2nn(C3CCCO3)nc2c1Cl (stereo unspecified) | < 4.00

tested on: Coxsackievirus B5; experiment: Antiviral activity against human CVB5 infected in african green monkey Vero76 cells assessed as inhibition of virus-induced cytopathogenicity after 3 days by plaque reduction assay; assay type: functional, organism-based; conditions: Enterovirus B, Vero 76, 72 h

Row | SMILES | pEC50
34 | COc1ccc(Cn2nnc3cc(Cl)c(Cl)cc32)cc1 | < 4.00
35 | Cc1ccc(C)c(OCCCC(C)(C)C(=O)O)c1 [GEMFIBROZIL] | < 4.00
36 | Cc1ccc2nn(-c3ccc(OCC(C)(C)C(=O)O)cc3)nc2c1 | 5.30

tested on: Human orthopneumovirus; experiment: Antiviral activity against human RSV infected in african green monkey Vero76 cells assessed as inhibition of virus-induced cytopathogenicity after 5 days by plaque reduction assay; assay type: functional, organism-based; conditions: human respiratory syncytial virus, Vero 76, 120 h

Row | SMILES | pEC50
37 | COc1ccc(Cn2nnc3cc(Cl)c(Cl)cc32)cc1 | < 4.00
38 | Cc1ccc(C)c(OCCCC(C)(C)C(=O)O)c1 [GEMFIBROZIL] | < 4.00
39 | Cc1ccc2nn(-c3ccc(OCC(C)(C)C(=O)O)cc3)nc2c1 | 4.82

tested on: Poliovirus 1; experiment: Antiviral activity against Human poliovirus 1 Sabin infected in african green monkey Vero76 cells assessed as inhibition of virus-induced cytopathogenicity by plaque reduction assay; assay type: functional, organism-based; conditions: Enterovirus C, Vero 76

Row | SMILES | pEC50
40 | COc1ccc(Cn2nnc3cc(Cl)c(Cl)cc32)cc1 | < 4.00
41 | Cc1ccc(C)c(OCCCC(C)(C)C(=O)O)c1 [GEMFIBROZIL] | < 4.00
42 | Clc1cc2nn(C3CCCCO3)nc2cc1Cl (stereo unspecified) | 4.22
43 | Cc1ccc2nn(-c3ccc(OCC(C)(C)C(=O)O)cc3)nc2c1 | < 4.00
44 | Clc1c(Cl)c(Cl)c2nn(C3CCCO3)nc2c1Cl (stereo unspecified) | < 4.00

tested on: not listed separately; experiment: Selectivity index, ratio of CC50 for MDBK cells to EC50 for BVDV; design: species or system Bovine viral diarrhea virus 1; conditions: not given

Row | SMILES | Ratio CC50/EC50
45 | Cc1ccc(C)c(OCCCC(C)(C)C(=O)O)c1 [GEMFIBROZIL] | >1.11
46 | Clc1c(Cl)c(Cl)c2nn(C3CCCO3)nc2c1Cl (stereo unspecified) | 8.33

tested on: not listed separately; experiment: Selectivity index, ratio of CC50 for african green monkey Vero76 cells to EC50 for human CVB5; design: species or system Coxsackievirus B5, Vero 76; conditions: not given

Row | SMILES | Ratio CC50/EC50
47 | Cc1ccc2nn(-c3ccc(OCC(C)(C)C(=O)O)cc3)nc2c1 | 12

tested on: not listed separately; experiment: Selectivity index, ratio of CC50 for african green monkey Vero76 cells to EC50 for human RSV; design: species or system human respiratory syncytial virus, Vero 76; conditions: not given

Row | SMILES | Ratio CC50/EC50
48 | Cc1ccc2nn(-c3ccc(OCC(C)(C)C(=O)O)cc3)nc2c1 | 4

tested on: Human immunodeficiency virus 1; experiment: Antiviral activity against HIV-1 infected in MT4 cells assessed as inhibition of virus-induced cytopathogenicity after 4 days by MTT assay; assay type: functional, organism-based; conditions: Human immunodeficiency virus 1, MT4, 96 h

Row | SMILES | pEC50
49 | COc1ccc(Cn2nnc3cc(Cl)c(Cl)cc32)cc1 | < 4.00
50 | Clc1cc2nn(C3CCCCO3)nc2cc1Cl (stereo unspecified) | < 4.00
51 | Cc1ccc2nn(-c3ccc(OCC(C)(C)C(=O)O)cc3)nc2c1 | < 4.00
52 | Clc1c(Cl)c(Cl)c2nn(C3CCCO3)nc2c1Cl (stereo unspecified) | < 4.00

tested on: Human alphaherpesvirus 1; experiment: Antiviral activity against HSV1; assay type: functional, organism-based; conditions: not given

Row | SMILES | pEC50
53 | COc1ccc(Cn2nnc3cc(Cl)c(Cl)cc32)cc1 | < 4.00
54 | Clc1cc2nn(C3CCCCO3)nc2cc1Cl (stereo unspecified) | < 4.00
55 | Clc1c(Cl)c(Cl)c2nn(C3CCCO3)nc2c1Cl (stereo unspecified) | < 4.00

tested on: Vesicular stomatitis virus; experiment: Antiviral activity against VSV; assay type: functional, organism-based; conditions: not given

Row | SMILES | pEC50
56 | COc1ccc(Cn2nnc3cc(Cl)c(Cl)cc32)cc1 | < 4.00
57 | Clc1cc2nn(C3CCCCO3)nc2cc1Cl (stereo unspecified) | < 4.00
58 | Cc1ccc2nn(-c3ccc(OCC(C)(C)C(=O)O)cc3)nc2c1 | < 4.00
59 | Clc1c(Cl)c(Cl)c2nn(C3CCCO3)nc2c1Cl (stereo unspecified) | < 4.00

tested on: Vaccinia virus; experiment: Antiviral activity against Vaccinia virus; assay type: functional, organism-based; conditions: Orthopoxvirus vaccinia

Row | SMILES | pEC50
60 | COc1ccc(Cn2nnc3cc(Cl)c(Cl)cc32)cc1 | < 4.00
61 | Cc1ccc2nn(-c3ccc(OCC(C)(C)C(=O)O)cc3)nc2c1 | < 4.00

Reference: ChEMBL document CHEMBL3734667 (Bioorg Med Chem, 2015)
